Measured values: US10167266B2, “Sodium channel blockers” (Parion Sciences, Inc., priority 2002, dated 2019)
Values joined by “and” are separate entries in the source; they are usually repeats but may differ in a detail not shown here. Equal entries are not always repeated. Structures can show the parent of a compound that is named as a salt.

Test system: sodium channel (ENaC), canine bronchial epithelia
Experiment: Sodium channel blocking activity: inhibition of short circuit current (ISC) in airway epithelial monolayers in Ussing chambers
Format: cell-based
Settings: for Fold Enhancement Over Amiloride / Fold Amiloride*: potency in canine bronchial epithelia relative to amiloride; for Fold potency relative to amiloride: Example 51
Experimental: One assay used to assess mechanism of action and/or potency of the compounds of the present invention involves the determination of lumenal drug inhibition of airway epithelial sodium currents measured under short circuit current (ISC) using airway epithelial monolayers mounted in Ussing chambers. Cells obtained from freshly excised human, dog, sheep or rodent airways are seeded onto porous 0.4 micron Snapwell™ Inserts (CoStar), cultured at air-liquid interface (ALI) conditions in hormonally defined media, and assayed for sodium transport activity (ISC) while bathed in Krebs Bicarbonate Ringer (KBR) in Using chambers. All test drug additions are to the lumenal bath with half-log dose addition protocols (from 1×10^−11 M to 3×10^−5 M), and the cumulative change in ISC (inhibition) recorded. All drugs are prepared in dimethyl sulfoxide as stock solutions at a concentration of 1×10^−2 M and stored at −20° C. Eight preparations are typically run in parallel; two preparations per run incorporate amiloride and/or benzamil as positive controls. After the maximal concentration (5×10^−5 M) is administered, the lumenal bath is exchanged three times with fresh drug-free KBR solution, and the resultant ISC measured after each wash for approximately 5 minutes in duration. Reversibility is defined as the percent return to the baseline value for sodium current after the third wash. All data from the voltage clamps are collected via a computer interface and analyzed off-line.
Dose-effect relationships for all compounds are considered and analyzed by the Prism 3.0 program. IC50 values, maximal effective concentrations, and reversibility are calculated and compared to amiloride and benzamil as positive controls.
Amiloride was also tested in this assay as a positive control. The results for the compounds of the present invention are reported as fold-enhancement values relative to amiloride.

SMILES: COCCOCCOCCOCCOc1ccc(CCCCNC(=N)NC(=O)c2nc(Cl)c(N)nc2N)cc1.Cl [drawing 50: n=4, 4-[4-(1,4,7,10,13-pentoxatetradec-1-yl)phenyl]-butylamidino-3,5-diamino-6-chloropyrazinecarboxamide hydrochloride]
- Fold Enhancement Over Amiloride (Example 30): 28.7 fold

SMILES: COC(=O)c1ccc(CCCCNC(=N)NC(=O)c2nc(Cl)c(N)nc2N)cc1 [drawing 51: R^5=—CO2CH3, 4-(4-Carboxymethylphenyl)butylamidino-3,5-diamino-6-chloropyrazinecarboxamide hydrochloride]
- Fold Enhancement Over Amiloride (Example 31): 26.5 fold

SMILES: Cl.Cl.N=C(NCCCCc1ccc(OCCN(C[C@H](O)[C@H](O)CO)C[C@H](O)[C@H](O)CO)cc1)NC(=O)c1nc(Cl)c(N)nc1N [drawing 67: O CH2 CH2 NR R^a,c (r13), N-[4-(4-{2-[bis-((2S,3R)-2,3,4-trihydroxybutyl)amino]ethoxy}phenyl)butyl]-N′-(3,5-diamino-6-chloropyrazine-2-carbonyl)guanidine dihydrochloride]
- Fold Amiloride* (Example 48): 73.2 ± 49.3 (9) fold

SMILES: CC(C)(C)OC(=O)NCCOc1ccc(CCCCNC(N)=NC(=O)c2nc(Cl)c(N)nc2N)cc1 [drawing 64: X=NHCO2(CH3)3, [2-(4-{4-[N′-(3,5-Diamino-6-chloropyrazine-2-carbonyl)guanidino]butyl}phenoxy)ethyl]-carbamic acid tert-butyl ester]
- Fold Amiloride* (Example 45): 51.7 ± 10.1 (2) fold
- Fold Amiloride* (Example 49): 51.7 ± 10.1 (2) fold

SMILES: Cl.N=C(NCCCCc1ccc(CO)cc1)NC(=O)c1nc(Cl)c(N)nc1N [drawing 51: R^5=—CH2OH, 4-(4-Hydroxymethylphenyl)butylamidino-3,5-diamino-6-chloropyrazinecarboxamide hydrochloride]
- Fold potency relative to amiloride: 50.9 ± 19.8 (3)
- Fold Enhancement Over Amiloride (Example 31): 57 fold
- Fold Amiloride* (Example 41): 50.9 ± 19.8 (3) fold
- Fold Amiloride* (Example 44): 50.9 ± 19.8 (3) fold

SMILES: N=C(NCCCCc1cccc(OCC(O)CO)c1)NC(=O)c1nc(Cl)c(N)nc1N (stereo not shown) [drawing 69: R=CH2OH, Meta, 4-[3-(2-,3-Dihydroxypropyloxyl)phenyl)]butylamidino-3,5-diamino-6-chloropyrazinecarboxamide hydrochloride]
- Fold Amiloride* (Example 50): 40 (1) fold

SMILES: N=C(NCCCCc1ccc(OCCN)cc1)NC(=O)c1nc(Cl)c(N)nc1N [drawing 61: R=NH2, n=2, 4-[4-(2-aminoethyloxy)phenyl)butylamidino-3,5-diamino-6-chloropyrazinecarboxamide hydrochloride]
- Fold potency relative to amiloride: 56.5 ± 0
- Fold Amiloride* (Example 42, hydrochloride): 60.1 ± 1.3 (2) fold and 56.5 ± 0 (4) ^ fold
- Fold Amiloride* (Example 45): 56.5 ± 24 (4) fold
- Fold Amiloride* (Example 48): 84.9 ± 30.3 (6) fold

SMILES: N=C(NCCCCc1ccc(N)cc1)NC(=O)c1nc(Cl)c(N)nc1N [drawing 60: R=NH2, N=0, 4-[4-(4-Amino)phenyl)]butylamidino-3,5-diamino-6-chloropyrazinecarboxamide hydrochloride]
- Fold potency relative to amiloride: 32.6 ± 2
- Fold Amiloride* (Example 41): 32.6 ± 2.0 (3) fold
- Fold Amiloride* (Example 43): 32.6 ± 2 (3) fold
- Fold Amiloride* (Example 48): 32.6 ± 2 (3) ^ fold

SMILES: Cl.NC(=NCCCCc1ccc(OCCCO)cc1)NC(=O)c1nc(Cl)c(N)nc1N [drawing 61: R=OH, n=3]
- Fold Amiloride* (Example 42): 105.2 ± 26.6 (7) fold

SMILES: N=C(NCCc1ccc(N)cc1)NC(=O)c1nc(Cl)c(N)nc1N [drawing 47: n=2, 4, NH2, 4-(4-Aminophenyl)ethylamidino-3,5-diamino-6-chloropyrazinecarboxamide hydrochloride]
- Fold Enhancement Over Amiloride (Example 28): 12.7 fold

SMILES: N=C(NCCCCc1ccc(C(=O)NCCO)cc1)NC(=O)c1nc(Cl)c(N)nc1N [drawing 62: X=C═O, Y=NH(CH2)2—OH, 4-{4-[N-(3,5-diamino-6-chloropyrazine-2-carbonyl)guanidino]butyl}-N-(2-hydroxyethyl)benzamide hydrochloride]
- Fold Amiloride* (Example 43): 28.5 (1) fold

SMILES: COC(=O)C1OC(Oc2ccc(CCCCNC(N)=NC(=O)c3nc(Cl)c(N)nc3N)cc2)C(OC(C)=O)C(OC(C)=O)C1OC(C)=O (stereo not shown) [drawing 51: R^5=40, 4-[4-(Methyl-2,3,4-tri-O-acetyl-glucopyranonuronate-1-O-yl)phenyl]butylamidino-3,5-diamino-6-chloropyrazinecarboxamide]
- Fold Enhancement Over Amiloride (Example 31): 65 fold

SMILES: NC(=NC(=O)c1nc(Cl)c(N)nc1N)NCCCCc1ccc(OS(=O)(=O)O)cc1 [drawing 51: R^5=—O—SO3H, 4-(4-Sulfatephenyl)butylamidino-3,5-diamino-6-chloropyrazinecarboxamide]
- Fold Enhancement Over Amiloride (Example 31): 27.7 fold

SMILES: Cl.N=C(NCCCCc1ccc(OCC(O)CO)cc1)NC(=O)c1nc(Cl)c(N)nc1N (stereo not shown) [drawing 48: R=H, 4-[4(2,3-Dihydroxypropyloxyl)phenyl]butylamidino-3,5-diamino-6-chloropyrazinecarboxamide hydrochloride]
- Fold Enhancement Over Amiloride (Example 29): 124 fold
- Fold Amiloride* (Example 47): 51.95 (50) fold
- Fold Amiloride* (Example 48): 51.95 (79) fold
- Fold Amiloride* (Example 50): 51.55 (79) fold

SMILES: COCCOc1ccc(CCCCNC(=N)NC(=O)c2nc(Cl)c(N)nc2N)cc1.Cl [drawing 50: n=1, 4-[4-(1,4-Dioxapent-1-yl)phenyl]butylamidino-3,5-diamino-6-chloropyrazinecarboxamide hydrochloride]
- Fold Enhancement Over Amiloride (Example 30): 87 fold
- Fold Amiloride* (Example 48): 51.5 ± 14.9 (2) fold

SMILES: Cl.Cl.N=C(NCCCCc1ccc(OCCNC[C@H](O)[C@H](O)CO)cc1)NC(=O)c1nc(Cl)c(N)nc1N [drawing 67: O CH2 CH2 NH R^a, N-[4-(4-{2-[(2S,3R)-2,3,4-trihydroxybutylamino]ethoxy}phenyl)butyl]-N′-(3,5-diamino-6-chloropyrazine-2-carbonyl)guanidine dihydrochloride]
- Fold Amiloride* (Example 48): 52.9 ± 14.3 (5) fold

SMILES: CC(=O)OCC(COc1ccc(CCCCNC(=N)NC(=O)c2nc(Cl)c(N)nc2N)cc1)OC(C)=O (stereo not shown) [drawing 48: R=drawing 49, 4-[4-(2,3-Diacetoxypropyloxy)phenyl]butylamidino-3,5-diamino-6-chloropyrazinecarboxamide]
- Fold Enhancement Over Amiloride (Example 29): 36 fold

SMILES: N=C(NCCCCc1ccc(OCCCO)cc1)NC(=O)c1nc(Cl)c(N)nc1N [drawing 61: R=OH, n=3, 4-[4-(3-Hydroxypropyloxy)phenyl)]butylamidino-3,5-diamino-6-chloropyrazinecarboxamide hydrochloride]
- Fold potency relative to amiloride: 105.2 ± 26.6
- Fold Amiloride* (Example 47): 105.2 ± 26.6 (7) fold

SMILES: N=C(NCCCCc1cccc(OCCO)c1)NC(=O)c1nc(Cl)c(N)nc1N [drawing 69: R=H, Meta, 4-[3-(2-Hydroxyethyloxy)phenyl)butylamidino-3,5-diamino-6-chloropyrazinecarboxamide hydrochloride]
- Fold Amiloride* (Example 50): 41.1 ± 8.5 (2) fold
